Measured values reported in US8211883B2, “Topical delivery of phthalocyanines” (priority 2004, dated 2012).

Experiments:
RIF-1 tumors = test: RIF-1 implanted tumors, PcIV followed by multiple exposures to light; format: in vivo, C3H/HeN mice
Protocol: To overcome the regrowth, RIF-1 tumors were implanted in C3H/HeN mice, and the mice were treated with PcIV followed by multiple exposures to light. For multiple exposures to light to be successful, the tumor tissue must retain sufficient levels of the photosensitizer over the exposure period.

[1] = tested on: human skin keratome biopsies; test: Penetration of topically applied PcIV and salts into human skin, confocal fluorescence microscopy; format: in vitro ADME; settings: for laser transmission at which maximum fluorescence was detectable: fluorescence inversely proportional to laser transmission, listed as PcIV
Protocol: Human skin absorption of PcIV was analyzed by fluorescence confocal microscopy. PcIV fluorescence, upon activation with a HeNe laser at 633 nm, was visualized using a 650 long pass filter. Briefly, 0.4 mm thick human keratomes were removed from the gluteal region of healthy volunteers and divided into 1.5 cm×1.5 cm squares of skin. Upon application of PcIV to the epidermis in a vehicle of ethanol and propylene glycol, visualization of penetration of PcIV was achieved by fluorescence. Pc 4 was then prepared as PcIV-pyruvate and PcIV-HCl and applied in the same vehicle as Pc 4 to the epidermis. Three concentrations, namely, 0.1 mg/mL, 0.05 mg/mL, and 0.01 mg/mL were tested per PcIV formulation. Skin was incubated at 37° C. for 1, 2, and 4 hours, along with vehicle controls. […] Maximum PcIV fluorescence was detectable using laser transmission of 3% for the 0.1 mg/mL and 30% for the 0.01 mg/mL. Both PcIV.pyruvate and PcIV.HCl however could be visualized with a laser transmission of 2-3% for the 0.1 mg/mL and 7-9% for the 0.01 mg/mL concentrations.
The ability of PcIV and the newly prepared PcIV salts (HCl and pyruvate) to penetrate into the epidermis of keratome derived biopsies was examined. The time course of penetrance as well as the effect of dose of the PcIV compounds were evaluated. PcIV and the PcIV.HCl and PcIV.pyruvate salts were resuspended in ethanol (100%, 1 part PcIV, 499 parts ethanol) and then diluted to final concentrations in a 30% Propylene Glycol 70% Ethanol mixture.
Keratome biopsies of normal skin were obtained from normal volunteers after written consent according to UHHS IRB protocol # 05-95-03. To date, seven experiments have been performed. The range of age for volunteers was 20-40 yrs. Individuals represented Fitzpatrick skin types between I-III. Skin biopsies were held in PBS following the keratome procedure until processed for PcIV Application (less than 1 hr). The keratome skin samples (1.5 cm^2) were overlayed onto sterile gauze in 80 mm tissue culture petri dishes epidermal side down. PcIV compounds were then applied to the corners of the sterile gauze and allowed to “wick” through the gauze and contact the epidermis of the skin for the indicated times. Following the incubation, the tissue was removed from the gauze and washed three times in phosphate buffered saline and held, in PBS, until analysis by confocal microscopy. Confocal images were acquired using a 20×N.A. 0.5 water immersion objective on a Zeiss 510 confocal microscope. PcIV fluorescence was elicited using a 633 nm wavelength for excitation, and collected with a 633 nm dichroic mirror and 650 nm long-pass filter.

[2] = Retention of Pc IV in tumor tissue (pharmacokinetic data); format: in vivo; settings: after administration
[3] = tested on: chemically-induced benign skin papillomas; test: PDT of chemically induced skin tumors; format: in vivo, SENCAR mice; settings: 0.5 and 1.0 mg/kg i.p. in DPPC liposomes
Protocol: 6-week-old female SENCAR mice received a single topical application of 5 μg DMBA in 0.2 mL acetone on the dorsal skin as tumor initiator. One week later, the animals were started on twice-weekly topical applications of 1 μg TPA in 0.2 mL acetone as tumor promoter. All of the animals developed tumors at 12 weeks. Mice that developed 4-5 tumors per animal averaging 5-8 mm in diameter and 2-5 mm in thickness were used. Pc IV, entrapped in DPPC liposomes was administered intraperitoneally at doses of either 0.5 or 1.0 mg/kg and 24 hrs later the tumor area was illuminated with light from an argon pumped dye laser tuned at 675 nm for a total light dose of 135 j/cm^2 (75 mW/cm^2). All possible controls were included; either the animals were untreated, treated only with laser light or treated only with Pc IV alone.

[4] = tested on: Chinese hamster V79-379 lung fibroblasts; test: Growth delay of V79 cultures after phthalocyanine and red light; format: cell-based; settings: V79 cells, 0.5 μM, 18 hours, 12 kJ/m^2 red light; three day observation
Protocol: At the time of light exposure, there were approximately 1.5×10^5 cells per 25 cm^2 flask. Following irradiation, the HBSS was replaced by 10 mL of fresh complete growth medium, and the cultures were returned to the 37° C. incubator. At various times before and after irradiation, duplicate cultures were trypsinized and counted. Controls included untreated cells and cells treated with light alone or drug alone. In addition, in each experiment, the drug to be tested was compared to a standard treatment, i.e. 1 μM AlPcCl for 18 hours followed by 12 kJ/m^2 light.
The inhibition of V79 culture growth was measured during a three day period following red light irradiation (12 kJ/m^2) of phthalocyanine-pretreated cells. With each of the active compounds, as well as with AlPcCl, there was an initial decrease in cell density, as dead cells became detached from the monolayer. Thereafter, the cell number per flask increased, as living cells grew and divided. The time for the cell density to recover to the level at the time of light exposure was considered the growth delay. […] The ratio of the growth delay for the test photosensitizer and the growth delay for AlPcCl measured in the same experiment is recorded in Table 1. There was less inhibition of culture growth when cells were exposed to compounds III, V, or VI as expected from the poor cellular uptake of these drugs.

Structure (SMILES): CN(C)CCC[Si](C)(C)O[Si]1(O)n2c3c4ccccc4c2N=C2N=C(N=c4c5ccccc5c(n41)=NC1=NC(=N3)c3ccccc31)c1ccccc12 (stereo not drawn) [Compound IV, HOSiPcOSi(CH3)2(CH2)3N(CH3)2]
- % of Mice Surviving (RIF-1 tumors; 1 mg/kg in DPPC liposomes, 30 days, day of exposure 2): 100%
- % of Mice Surviving (RIF-1 tumors; 1 mg/kg in DPPC liposomes, 30 days, days of exposure 2, 3, 4, 5, and 6): 0%
- % of Mice Surviving (RIF-1 tumors; 1 mg/kg in DPPC liposomes, 30 days, days of exposure 2, 3, and 4): 0%
- % of Mice Surviving (RIF-1 tumors; 1 mg/kg in DPPC liposomes, 30 days, days of exposure 2-6): 0%
- % of Mice Surviving (RIF-1 tumors; 1 mg/kg in DPPC liposomes, 30 days, days of exposure 2 and 3): 100%
- % of Mice Surviving (RIF-1 tumors; 1 mg/kg in DPPC liposomes, 30 days, days of exposure 2 and 7): 100%
- % of Mice Surviving (RIF-1 tumors; 1 mg/kg in DPPC liposomes, 120 days, days of exposure 2, 3, 4, 5, and 6): 0%
- % of Mice Surviving (RIF-1 tumors; 1 mg/kg in DPPC liposomes, 120 days, days of exposure 2, 3, and 4): 0%
- % of Mice Surviving (RIF-1 tumors; 1 mg/kg in DPPC liposomes, 120 days, days of exposure 2-6): 0%
- % of Mice Surviving (RIF-1 tumors; 1 mg/kg in corn oil, 15 days, day of exposure 2): 100%
- % of Mice Surviving (RIF-1 tumors; 1 mg/kg in corn oil, 15 days, days of exposure 2, 3, 4, 5, and 6): 100%
- % of Mice Surviving (RIF-1 tumors; 1 mg/kg in corn oil, 15 days, days of exposure 2, 3, and 4): 100%
- % of Mice Surviving (RIF-1 tumors; 1 mg/kg in corn oil, 15 days, days of exposure 2-6): 100%
- % of Mice Surviving (RIF-1 tumors; 1 mg/kg in corn oil, 15 days, days of exposure 2 and 3): 100%
- % of Mice Surviving (RIF-1 tumors; 1 mg/kg in corn oil, 15 days, days of exposure 2 and 7): 100%
- tumor regrowth at sacrifice (RIF-1 tumors; DPPC liposomes, three to five irradiations, 300 days after the light treatment): no evidence of tumor regrowth
- tumor cure (RIF-1 tumors; entrapped in DPPC liposomes, mice irradiated three, four or five times at an interval of 24 hours): complete tumor cure
- tumor regrowth (RIF-1 tumors; given in corn oil, all the multiple exposure protocols): regrowth of tumors was evident 15 days after photodynamic therapy
- laser transmission at which maximum fluorescence was detectable ([1]; 0.01 mg/mL in ethanol and propylene glycol): 30%
- laser transmission at which maximum fluorescence was detectable ([1]; 0.1 mg/mL in ethanol and propylene glycol): 3%
- penetration into skin ([1]; 0.01-0.1 mg/mL, 1, 2 and 4 hours at 37° C.): successfully penetrated the skin to the basal layer in a dose dependent fashion
- lowest concentration tested at which penetration is demonstrated ([1]; propylene glycol vehicle): 0.01 mg/mL
- time to effective penetration through intact human stratum corneum ([1]; propylene glycol/ethanol vehicle): within one hour
- retention in tumor tissue [2]: retained in tumor tissue even after 7 days
- tumor volume after PDT ([3]; 675 nm 135 j/cm^2 24 hrs later): eventually decreased to 0 volume
- tumor return ([3]; length of the study 34 days): did not return for the length of the study
- Growth Delay (12 kj/m^2), Efficiency Relative to 1 μM (AlPcCl) [4]: >3
